According to US10081632B2, “Substituted tetrahydropyrido[3′,2′:4,5]pyrrolo[1,2-α]pyrazine-2-carboxamides as RSK inhibitors” (Phoenix Molecular Designs, priority 2016, dated 2018):

Key:
SUM149-PTXR cells [1] = experiment: Monolayer growth inhibition, Alamar blue assay; assay type: cell-based, Human; conditions: Homo sapiens; SUM149-PTXR (TNBC, BRCA Mutant), 5 days, single dose on day 1
From the text: (§1) In all instances a single dose was given on day 1 of the experiment.

T47D cells [2] = experiment: Monolayer growth inhibition, Alamar blue assay; assay type: cell-based, Human; conditions: Homo sapiens; T47D (ER/PR), 5 days, single dose on day 1
From the text: as §1

MDA-MB-231 cells [3] = experiment: Soft agar growth inhibition assay; assay type: cell-based; conditions: Homo sapiens
4T1 cells [4] = experiment: Monolayer growth inhibition, crystal violet assay; assay type: cell-based; conditions: Mus musculus; 4T1 (TNBC), 5 days, single dose on day 1
From the text: as §1

SUM149 cells [5] = experiment: Monolayer growth inhibition, crystal violet assay; assay type: cell-based; conditions: Homo sapiens; SUM149 (TNBC, BRCA Mutant), 5 days, single dose on day 1
From the text: as §1

MDA-MB-231 cells [6] = experiment: Monolayer growth inhibition, crystal violet assay; assay type: cell-based; conditions: Homo sapiens; MDA-MB-231 (TNBC), 5 days, single dose on day 1
From the text: as §1

PC3 cells [7] = experiment: Monolayer growth inhibition, crystal violet assay; assay type: cell-based; conditions: Homo sapiens, PC-3; PC3 (Prostate), 5 days, single dose on day 1
From the text: as §1

MDA-MB-435 cells [8] = experiment: Monolayer growth inhibition, crystal violet assay; assay type: cell-based; conditions: Homo sapiens; MDA-MB-435 (Melanoma), 5 days, single dose on day 1
From the text: as §1

SUM149-PTXR cells [9] = experiment: Monolayer growth inhibition, crystal violet assay; assay type: cell-based; conditions: Homo sapiens; SUM149-PTXR (TNBC, BRCA Mutant), 5 days, single dose on day 1
From the text: as §1

HCC1143 cells [10] = experiment: Monolayer growth inhibition, crystal violet assay; assay type: cell-based; conditions: Homo sapiens; HCC1143 (TNBC), 5 days, single dose on day 1
From the text: as §1

All cell lines [11] = experiment: Monolayer growth inhibition, Alamar blue assay, range over all cell lines; assay type: cell-based; conditions: 120 h; range of IC50 over all cell lines of the table; read-out: IC50 Values - Alamar Blue (5 Days), Range, All
From the text: as §1

4T1 cells [12] = experiment: Soft agar growth inhibition assay; assay type: cell-based; conditions: Mus musculus; 4T1 (TNBC), 14-22 days; read-out: IC50 Values - Soft Agar (14-22 Days)
Experimental: Two agar (Alfa Aesar) solutions (0.8% w/v and 0.4% w/v) were prepared in ultrapure water. The 0.8% agar solution was mixed in equal volumes with 2× media previously prepared from powder (Life Technologies) following the manufacturer's instructions and filter sterilized. The 0.8% agar and media solution was added to 24 well plates (Mandel Scientific) at 500 μl per well. The plates were placed in a humidified incubator at 37° C. with 5% CO2. Next, the 0.4% agar solution was mixed in equal volumes with 2× media. Breast cancer cell lines were added to this solution to achieve a final concentration of 2×10^4 cells per well and […] was added to each well on top of the bottom agar and media layer. […] The plates were returned to the incubator for 10-32 days, with a re-dosing of compounds or DMSO every 7 days. After 10-32 days, colonies were counted in 3 different fields of view for each well.
Representative compounds described herein were tested in the soft agar growth inhibition assay against the 4T1 breast cancer cell line.

[13] = Solubility assessment, 20 mg/ml solution; assay type: physicochemical; conditions: 100 mM in DMSO diluted in DMEM growth media to 20 mg/ml
Experimental: Solubility is an important property for therapeutic drug candidates. Poor solubility can lead to low bioavailability resulting in suboptimal drug delivery. It can also prevent the evaluation of test agents in animals because the concentration(s) needed to achieve the desired effect cannot be achieved to poor solubility. For solubility assessments, small molecules targeting RSK were compared. For these assessments, 100 mM solutions of the compounds dissolved in DMSO were diluted in DMEM growth media (Life Technologies) supplemented with fetal bovine serum (FBS, Life Technologies) and 100 units/ml penicillin and 100 units/ml streptomycin (Life Technologies) to make 20 mg/ml solutions. Once diluted, the solutions were vortexed and examined for the formation of precipitates. […] For Compound 26, a 100 mM solution of the compound dissolved in DMSO was diluted in phosphate buffered saline (Life Technologies) to make a 20 mg/ml solution. The stock of […] was chosen because this is the upper end of what would be required to dose mice for a range of studies including MTD, PK, PD and efficacy. The pH of this solution was determined to be 2, as previously described. […] At high concentrations some RSK inhibitors were highly soluble while others were not. Compound 0 is (R)—N-(1-benzyl-1H-pyrazol-4-yl)-9-methyl-6-oxo-6,7,8,9-tetrahydropyrido[3′,2′:4,5]pyrrolo[1,2-a]pyrazine-2-carboxamide. Compound 0 was not soluble, whereas Compounds 18, 20, 21, 25 and 26 were soluble under the same conditions (Table 5).

MDA-MB-468 cells [14] = experiment: Soft agar growth inhibition assay; assay type: cell-based, Human; conditions: Homo sapiens; MDA-MB-468 (TNBC), 14-22 days
All cell lines [15] = experiment: Monolayer growth inhibition, crystal violet assay, range over all cell lines; assay type: cell-based; conditions: 120 h; range of IC50 over all cell lines of the table; read-out: IC50 Values - Crystal Violet (5 Days), Range, All
From the text: (§2) In all instances a single dose was given on day 1 of the experiment. […] Complete (100%) growth suppression was achievable with several of the compounds in multiple different cell lines.

4T1 cells [16] = experiment: Monolayer growth inhibition, Alamar blue assay; assay type: cell-based; conditions: Mus musculus; 4T1 (TNBC), 5 days, single dose on day 1
From the text: as §1

SUM149 cells [17] = experiment: Monolayer growth inhibition, Alamar blue assay; assay type: cell-based; conditions: Homo sapiens; SUM149 (TNBC, BRCA Mutant), 5 days, single dose on day 1
From the text: as §1

JIMT-1 cells [18] = experiment: Monolayer growth inhibition, Alamar blue assay; assay type: cell-based; conditions: Homo sapiens; JIMT-1 (HER2), 5 days, single dose on day 1
From the text: as §1

HCC1937 cells [19] = experiment: Monolayer growth inhibition, Alamar blue assay; assay type: cell-based; conditions: Homo sapiens; HCC1937 (TNBC, BRCA Mutant), 5 days, single dose on day 1
From the text: as §1

MDA-MB-231 cells [20] = experiment: Monolayer growth inhibition, Alamar blue assay; assay type: cell-based; conditions: Homo sapiens; MDA-MB-231 (TNBC), 5 days, single dose on day 1
From the text: as §1

PC3 cells [21] = experiment: Monolayer growth inhibition, Alamar blue assay; assay type: cell-based; conditions: Homo sapiens, PC-3; PC3 (Prostate), 5 days, single dose on day 1
From the text: as §1

MDA-MB-468 cells [22] = experiment: Monolayer growth inhibition, Alamar blue assay; assay type: cell-based; conditions: Homo sapiens; MDA-MB-468 (TNBC), 5 days, single dose on day 1
From the text: as §1

MDA-MB-435 cells [23] = experiment: Monolayer growth inhibition, Alamar blue assay; assay type: cell-based; conditions: Homo sapiens; MDA-MB-435 (Melanoma), 5 days, single dose on day 1
From the text: as §1

HCC1143 cells [24] = experiment: Monolayer growth inhibition, Alamar blue assay; assay type: cell-based; conditions: Homo sapiens; HCC1143 (TNBC), 5 days, single dose on day 1
From the text: as §1

JIMT-1 cells [25] = experiment: Monolayer growth inhibition, crystal violet assay; assay type: cell-based; conditions: Homo sapiens; JIMT-1 (HER2), 5 days, single dose on day 1
From the text: as §2

HCC1937 cells [26] = experiment: Monolayer growth inhibition, crystal violet assay; assay type: cell-based; conditions: Homo sapiens; HCC1937 (TNBC, BRCA Mutant), 5 days, single dose on day 1
From the text: as §2

MDA-MB-468 cells [27] = experiment: Monolayer growth inhibition, crystal violet assay; assay type: cell-based; conditions: Homo sapiens; MDA-MB-468 (TNBC), 5 days, single dose on day 1
From the text: as §2

T47D cells [28] = experiment: Monolayer growth inhibition, crystal violet assay; assay type: cell-based; conditions: Homo sapiens; T47D (ER/PR), 5 days, single dose on day 1
From the text: as §2

[29] = tested on: phosphorylated Y-box binding protein-1 (YB-1) at serine 102 (P-YB-1S102); experiment: Immunoblotting of cell signalling, loss of P-YB-1 in MDA-MB-231 cells; conditions: Homo sapiens, MDA-MB-231, read-out: IC50 values for P-YB-1
Experimental: Following desired experimental conditions, breast cancer cell lines grown and treated in 6 well plates or 100 mm culture dishes (Grenier Bio-One) were placed on ice and the supernatant from each well was removed and the cells were washed in cold PBS. Following removal of PBS, cells were exposed to radioimmunoprecipitation assay (RIPA) buffer (50 mM Tris-HCl (pH 8), 150 mM NaCl, 1% NP-40, 0.5% sodium deoxycholate, 0.1% SDS; Fisher Scientific) supplemented with 1% phosphatase inhibitor (Fisher Scientific) and 1% protease inhibitor (Fisher Scientific) for 10 minutes. Samples were transferred to eppendorf tubes, vortexed and then centrifuged at 14 000 rpm for 10 minutes. Supernatants were collected as whole cell lysates.
To begin, the protein content of the lysates was measured using the Bicinchoninic Acid (BCA) Protein Assay Kit (Pierce), which included a protein standard curve generated with bovine serum albumin. Appropriate volumes of samples and loading buffer (50 mM Tris-HCl (pH 6.8), 2% SDS, 10% glycerol, 1% j-mercaptoethanol, 12.5 mM EDTA, 0.02% bromophenol blue) were mixed, ensuring that equal amounts of protein were loaded. For the majority of experiments in this study, 30 μg of protein per well was loaded. Samples were then resolved on SDS-PAGE (polyacrylamide gel electrophoresis) using various percentages of acrylamide gels (8%-12%), depending on the proteins of interest. SDS-PAGE was run in SDS running buffer (25 mM Tris, 192 mM glycine, 0.1% SDS) and then transferred to nitrocellulose membranes (Bio-Rad) in transfer buffer (48 mM Tris, 39 mM glycine, 20% (v/v) methanol) at 100 volts for 90 minutes at room temperature. Immunoblots were then blocked in 5% skim milk in tris-buffered saline with 0.1% Tween-20 (TBS-T; 50 mM Tris-HCl, pH 7.5, 150 mM NaCl, 0.1% (v/v) Tween-20 (Fisher Scientific)) for 1 to 2 hours. Immunoblots were then incubated with selected primary antibodies diluted in TBS-T with 0.1% gelatin (Bio-Rad) and 0.05% sodium azide (Alfa Aesar) overnight. Following washes with TBT-T 4 times for 8 to 10 minutes, immunoblots were incubated with appropriate secondary antibodies conjugated to horseradish peroxidise (Cell Signalling Technology) diluted in TBS-T plus 5% skim milk at a ratio of 1:5000 for 2 hours at room temperature. After an additional round of washes in TBS-T, immunoblots were exposed to combined enhanced chemiluminescence (ECL) reagents (Fisher Scientific) for 1 minute and developed using ChemiDoc MP Imaging System (Bio-Rad). For certain immunoblots, bands of proteins of interest were scanned and band intensity ratios were determined by densitometric analysis (ImageJ). […] Total YB-1 was used as a loading control (1:5000 Abcam). […] To assess whether cells are actively undergoing cell death, the activity of poly ADP ribose polymerase (PARP) (1:1000 CST) was also measured using the immunoblotting method.

MDA-MB-231 cells [30] = experiment: Combination with paclitaxel, monolayer growth (crystal violet); conditions: MDA-MB-231 cells + 0.3 nM PTX, 5 days
Experimental: 1×10^3 cells per well were seeded for a final volume of 200 μl per well and plates were incubated for 5 days at 37° C. in a humidified incubator with 5% CO2. Following the incubation period, cell survival was quantified by Alamar blue assay (Life Technologies). Briefly, media from each well was replaced with 100 μl of phosphate buffer saline (PBS, Life Technologies) and cells were incubated with 5% Alamar blue, which incorporates a propriety redox indicator that changes colour in response to metabolic activity, for up to 2 hours. During this period of incubation, the absorbance at 570 nm and 600 nm was measured at various time points, depending on the cell line or sample. Percent survival was calculated by comparing the absorbance ratio of the test well to the control well multiplied by 100%, as indicated in the following formula:
Following, plates were prepared for crystal violet staining. To begin, 100 μl of an 8% formaldehyde (Alfa Aesar) solution diluted in PBS was added to each well and plates were stored at 4° C. overnight. Next, the formaldehyde solution was discarded and the wells were washed with 200 μl ultrapure water per well three times. Following, 50 μl of a 0.5% crystal violet solution (0.5% w/v crystal violet (Alfa Aesar), 25% methanol (VWR)) was added to each well and incubated at room temperature for 20 minutes. The crystal violet solution was discarded and wells were washed with 200 μl ultrapure water per well three times. Next, 50 μl of a 5% sodium dodecyl sulphate (SDS) (Alfa Aesar) was added to each well and the absorbance at 590 nm was measured.

CD34+ cells = experiment: Colony forming unit hematopoietic stem cell assay; assay type: cell-based, human
Experimental: The hematopoietic colony forming cell assay was conducted based on a protocol outlined by StemCell Technologies. […] Following the addition of CD34^+ cells isolated from human cord blood or peripheral blood (StemCell Technologies) at a final concentration of 5×10^2 cells per dish, the tubes were vortexed and allowed to stand for 5 minutes at room temperature. Next, the MethoCult mixtures were dispensed into 35 mm dishes (Corning Incorporated) through blunt end needles (StemCell Technologies) and 5 ml syringes (BD Biosciences) at a volume of 1.1 ml per dish. The medium was evenly distributed across the surface of each dish by gentle tilting and rotation. The dishes were then placed in a 100 mm culture dish (Grenier Bio-One) containing additional 35 mm dishes with sterile water to maintain humidity. […] The number of myeloid and erythroid derived colonies in both the treated and control dishes were counted and compared.

[31] = MDA-MB-231 (TNBC), 14-22 days, read-out: IC50 Values - Soft Agar (14-22 Days)

Row | Structure (SMILES) | IC50 (SUM149-PTXR cells [1]) [µM] | IC50 (T47D cells [2]) [µM] | IC50 (MDA-MB-231 cells [3]; [31]) [µM] | IC50 (4T1 cells [4]) [µM] | IC50 (SUM149 cells [5]) [µM] | IC50 (MDA-MB-231 cells [6]) [µM] | IC50 (PC3 cells [7]) [µM] | IC50 (MDA-MB-435 cells [8]) [µM] | IC50 (SUM149-PTXR cells [9]) [µM] | IC50 (HCC1143 cells [10]) [µM] | IC50 (All cell lines [11]) [µM] | IC50 (4T1 cells [12]) [µM] | Solubility, 20 mg/ml Solution [13] | IC50 (MDA-MB-468 cells [14]) [µM] | IC50 (All cell lines [15]) [µM] | IC50 (4T1 cells [16]) [µM] | IC50 (SUM149 cells [17]) [µM] | IC50 (JIMT-1 cells [18]) [µM] | IC50 (HCC1937 cells [19]) [µM] | IC50 (MDA-MB-231 cells [20]) [µM] | also measured
1 | C[C@@H]1CNC(=O)c2cc3ccc(C(=O)Nc4cnn(Cc5ccc(F)cc5F)c4)nc3n21 [Compound 23, (R)—N-(1-(2,4-difluorobenzyl)-1H-pyrazol-4-yl)-9-methyl-6-oxo-6,7,8,9-tetrahydropyrido[3′,2′:4,5]pyrrolo[1,2-a]pyrazine-2-carboxamide] | 5.1 ± 4 | 6 ± 4.9 | 0.3 ± 0.2 | 1.8 ± 0.8 | 2.1 ± 1.6 | 3.6 ± 0.8 | 6.8 ± 1.8 | 1.1 ± 0.8 | 5 ± 2.4 | 7.3 ± 3.4 | 1.1 to 19.8 | 2.4 ± 0.6 | Precipitate | 4 ± 0.8 | 1.1 to 15 | 2.5 ± 0.8 | 3 ± 2.4 | 19.8 ± 7.1 | 10.5 ± 1 | 7.8 ± 2 | IC50 (PC3 cells [21]): 10.7 ± 1.1 µM; IC50 (MDA-MB-468 cells [22]): 9.7 ± 1.8 µM; IC50 (MDA-MB-435 cells [23]): 1.1 ± 0.7 µM; IC50 (HCC1143 cells [24]): 9.7 ± 1.3 µM; IC50 (JIMT-1 cells [25]): 15 ± 6.1 µM; IC50 (HCC1937 cells [26]): 8.6 ± 3 µM; IC50 (MDA-MB-468 cells [27]): 7.2 ± 1.5 µM; IC50 (T47D cells [28]): 4.7 ± 4.9 µM; IC50 [29]: 0.033 µM
2 | CC(=O)O[C@H]1C(=O)[C@@]2(C)[C@H]([C@H](OC(=O)c3ccccc3)[C@]3(O)C[C@H](OC(=O)[C@H](O)[C@@H](NC(=O)c4ccccc4)c4ccccc4)C(C)=C1C3(C)C)[C@]1(OC(C)=O)CO[C@@H]1C[C@@H]2O [Taxol, paclitaxel, reference compound] | – | – | – | – | – | – | – | – | – | – | – | – | – | – | – | – | – | – | – | – | IC50 (MDA-MB-231 cells [3]; MDA-MB-231, growth in soft agar (SA), read-out: MDA-MB-231 IC50 (SA)): 0.0014 µM; % Survival (MDA-MB-231 cells [30]): MDA-MB-231 cells + 0.3 nM PTX: % Survival = 47.7%; IC50 (CD34+ cells; Homo sapiens, Hematopoietic stem cell, CD34+ cells from peripheral blood, read-out: CD34+ (PB) IC50): 0.0097 µM; Therapeutic Window (CD34+ cells; ratio IC50 against CD34+ cells and MDA-MB-231 cells (SA)): 6.9X
3 | C[C@@H]1CNC(=O)c2cc3ccc(C(=O)Nc4cnn(Cc5ccc(C(F)(F)F)cc5)c4)nc3n21 [Compound 22, (R)-9-methyl-6-oxo-N-(1-(4-(trifluoromethyl)benzyl)-1H-pyrazol-4-yl)-6,7,8,9-tetrahydropyrido[3′,2′:4,5]pyrrolo[1,2-a]pyrazine-2-carboxamide] | 7.8 ± 4.6 | 4.8 ± 0.9 | 0.2 ± 0.1 | 2.6 ± 1.5 | 6.2 ± 4.8 | 6.6 ± 2.1 | 6.8 ± 1.8 | 3.2 ± 1.3 | 8 ± 1.3 | 6.6 ± 3.1 | 4.5 to 17.1 | 3.8 ± 1.9 | Precipitate | 6.9 ± 1.7 | 2.6 to 14.2 | 4.5 ± 1 | 7.7 ± 4.6 | 17.1 ± 2.4 | 12.6 ± 3.5 | 13.9 ± 3.5 | IC50 (PC3 cells [21]): 9.2 ± 1.5 µM; IC50 (MDA-MB-468 cells [22]): 7.5 ± 2.1 µM; IC50 (MDA-MB-435 cells [23]): 6.8 ± 6.4 µM; IC50 (HCC1143 cells [24]): 9.9 ± 1 µM; IC50 (JIMT-1 cells [25]): 14.2 ± 5.1 µM; IC50 (HCC1937 cells [26]): 9.9 ± 3 µM; IC50 (MDA-MB-468 cells [27]): 6.6 ± 2.3 µM; IC50 (T47D cells [28]): 4.3 ± 2.1 µM; IC50 [29]: 0.024 µM
